Molecular target: Nicotinamide phosphoribosyltransferase (Homo sapiens, UniProt P43490)
Test: Biochemical Inhibition Assay

Nicotinamide phosphoribosyltransferase, sequence (P43490 whole entry): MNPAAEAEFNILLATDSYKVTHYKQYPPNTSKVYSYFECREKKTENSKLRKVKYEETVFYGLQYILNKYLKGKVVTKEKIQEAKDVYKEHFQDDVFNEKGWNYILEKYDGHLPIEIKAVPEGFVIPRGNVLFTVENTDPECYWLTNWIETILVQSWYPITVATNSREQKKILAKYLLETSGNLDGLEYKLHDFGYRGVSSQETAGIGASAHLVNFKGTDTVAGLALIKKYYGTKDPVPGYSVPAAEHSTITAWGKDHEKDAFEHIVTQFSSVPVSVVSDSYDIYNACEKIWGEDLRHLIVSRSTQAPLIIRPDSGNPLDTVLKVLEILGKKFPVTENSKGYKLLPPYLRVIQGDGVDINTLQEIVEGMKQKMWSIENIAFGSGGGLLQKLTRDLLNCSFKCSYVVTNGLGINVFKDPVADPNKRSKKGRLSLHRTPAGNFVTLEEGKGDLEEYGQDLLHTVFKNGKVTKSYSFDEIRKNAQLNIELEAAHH

C[C@H]1C2C[C@H](C[C@@H]1NS(=O)(=O)c1ccc(NC(=O)NCc3cccnc3)cc1)C2(C)C [US11279687, Compound 86]
IC50: 0.012 µM

Source: BindingDB's records for patent US11279687 (Valo Health, 2022)
